Results reported in patent US11655238B2 (priority 2018, dated 2023).
Values after ≈ are worked out from the molar mass of the structure shown.

Legend:
[1] = tested on: Mycobacterium bovis BCG strain; test: microbe, parasite or virus in culture; type: cell-based; conditions: for MIC: Mycobacterium tuberculosis variant bovis BCG, BCG, 168 h, read-out: MIC (μg/mL) Mycobacterium bovis BCG, BCG strain, 7H9 medium, 37° C., 168 hours, resazurin
[2] = tested on: Mycobacterium tuberculosis H37Ra strain; test: microbe, parasite or virus in culture; type: cell-based; conditions: for MIC: Mycobacterium tuberculosis, H37RA, 168 h, read-out: MIC (μg/mL) Mycobacterium tuberculosis H37Ra
[3] = tested on: Mycobacterium smegmatis strain (mc2155); test: Resazurin microplate MIC on Mycobacterium smegmatis; type: cell-based; conditions: mc2155, 7H9 medium, 37° C., 48 hours, resazurin; for MIC: Mycolicibacterium smegmatis, MC2155, 48 h, read-out: MIC (μg/mL) Mycobacterium smegmatis
[4] = tested on: Mycobacterium tuberculosis (H37Rv); conditions: reports, in words; cited from earlier work

Q: For `Cc1c(C(=O)O[C@H]2C[C@H]3CC[C@]2(C)C3(C)C)nn(-c2ccc(Cl)cc2Cl)c1-c1ccc(Cl)cc1` [Compound 173, (1R,2S,4R)-1,7,7-trimethyl-bicyclo[2.2.1]heptan-2-yl 5-(4-chlorophenyl)-1-(2,4-dichlorophenyl)-4-methyl-1H-pyrazole-3-carboxylate], which MIC [1] is on record?
A: The MIC was greater than 232 µg/mL.

Q: And the MIC [2]?
A: The MIC was greater than 232 µg/mL.

Q: What about the MIC [3] of the same compound?
A: The MIC was 57.9 µg/mL (≈ 112 µM).

Q: For `Cc1c(C(=O)NN2CCCCC2)nn(-c2ccc(Cl)cc2Cl)c1-c1ccc(Cl)cc1` [Rimonabant, rimonabant, reference compound], which “effect against Mycobacterium tuberculosis (H37Rv)” value [4] is on record?
A: Its value is “significant effect”.

Q: What about the “MIC (μg/mL) Mycobacterium bovis BCG” value ([1]; BCG strain, 7H9 medium, 37° C., 168 hours, resazurin) of the same compound?
A: The value was 33.99 µg/mL (≈ 73.3 µM).

Q: And the MIC [1]?
A: The MIC was 34 µg/mL (≈ 73.3 µM).

Q: What about the “MIC (μg/mL) Mycobacterium tuberculosis H37Ra” value [2] of the same compound?
A: The value was 16.99 µg/mL (≈ 36.6 µM).

Q: What about the MIC [2] of the same compound?
A: The MIC was 17 µg/mL (≈ 36.6 µM).

Q: What about the MIC [3] of the same compound?
A: The MIC was 17 µg/mL (≈ 36.6 µM).

Q: And the “MIC (μg/mL) Mycobacterium smegmatis” value [3]?
A: Its value is 16.99 µg/mL (≈ 36.6 µM).
